The numbers were not newly measured in US20230191113A1, “METHOD AND APPARATUS FOR CANCER TREATMENT” (Minnesota Medical Physics LLC, priority 2020, published 2023), which cites them from elsewhere.

The subject of one data set is cancer tumors. The note with it: cited from earlier work.
The next data set addresses T1, A3 receptors (Homo sapiens, UniProt P0DMS8).
T1 sequence (P0DMS8 1-318): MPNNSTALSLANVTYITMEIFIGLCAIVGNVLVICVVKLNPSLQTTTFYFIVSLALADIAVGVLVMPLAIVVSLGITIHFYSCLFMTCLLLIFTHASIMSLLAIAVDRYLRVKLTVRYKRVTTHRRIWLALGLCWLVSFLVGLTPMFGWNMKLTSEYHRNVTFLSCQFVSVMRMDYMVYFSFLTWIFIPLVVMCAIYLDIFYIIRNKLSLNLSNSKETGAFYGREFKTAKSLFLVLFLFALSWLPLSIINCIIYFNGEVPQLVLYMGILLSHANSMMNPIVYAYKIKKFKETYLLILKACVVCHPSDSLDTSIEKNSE
The conditions noted are these: allosteric enhancer added to A3AR agonist; cited from earlier work.

Structures are written as SMILES.

Regarding `CNC(=O)[C@H]1O[C@@H](n2cnc3c(NCc4cccc(I)c4)nc(Cl)nc32)[C@H](O)[C@@H]1O` [CL-IB-MECA], the “increase of the apoptotic rate by one-dimensional EFS” value with cancer tumors (CL-IB-MECA plus one-dimensional EFS) is reported as 0.4 factor. In the data set with cancer tumors (multiple studies, significant dose of A3AR agonist alone), the “effect on growth of cancer tumors” value is “slowed down the growth of cancer tumors”.
Turning to `Clc1ccc(Nc2nc3ccccc3c3nc(C4CCCCC4)[nH]c23)cc1Cl` [LUF6000], the “increase of the maximum efficacy of A3 receptors agonists” value on A3 receptors was 45%.
